Assay results: the supplement of paper PMC10307832

Legend:
Assay in all cases: relative viability (nuclei count vs DMSO), 5 days (fraction); higher = more cells survive
Kobe2602 + Lapatinib = compound: C1=CC(=CC=C1NC(=S)NNC2=C(C=C(C=C2[N+](=O)[O-])C(F)(F)F)[N+](=O)[O-])F [Kobe2602] + CS(=O)(=O)CCNCc1ccc(-c2ccc3ncnc(Nc4ccc(OCc5cccc(F)c5)c(Cl)c4)c3c2)o1 [Lapatinib] (partner 2 µM)
Summary of the method: (§1)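 Relative viability divides the nuclei count in treated wells by that in vehicle wells. Lung cancer cell lines were seeded in 1536-well plates, dosed by pin tool the next day, and fixed and stained after 5 days in one step with final 0.05% Triton X-100, 1% formaldehyde and 1 ug/ml Hoechst. Dosing was a single drug or a fixed anchor-drug dose plus five library-drug doses (not always all listed) in √10 steps, and values are medians of duplicate plates imaged at 4×.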

[1] = compound: COc1cc2nccc(Oc3ccc(NC(=O)C4(C(=O)Nc5ccc(F)cc5)CC4)cc3)c2cc1OC [Cabozantinib] + C[C@]1(O)C[C@@H](c2nc(-c3ccc4ccc(-c5ccccc5)nc4c3)c3c(N)nccn32)C1 [Linsitinib] (partner 1 µM)
Summary of the method: as §1

Kobe2602 + Navitoclax = compound: C1=CC(=CC=C1NC(=S)NNC2=C(C=C(C=C2[N+](=O)[O-])C(F)(F)F)[N+](=O)[O-])F [Kobe2602] + CC1(C)CCC(c2ccc(Cl)cc2)=C(CN2CCN(c3ccc(C(=O)NS(=O)(=O)c4ccc(N[C@H](CCN5CCOCC5)CSc5ccccc5)c(S(=O)(=O)C(F)(F)F)c4)cc3)CC2)C1 [Navitoclax] (partner 0.5 µM)
Summary of the method: as §1

[2] = compound: COc1cc2nccc(Oc3ccc(NC(=O)C4(C(=O)Nc5ccc(F)cc5)CC4)cc3)c2cc1OC [Cabozantinib] + CC(C)C[C@H](NC(=O)[C@H](Cc1ccccc1)NC(=O)c1cnccn1)B(O)O [Bortezomib] (partner 0.002 µM)
Summary of the method: as §1

Cell Line | relative viability (Kobe2602 + Lapatinib; first compound 0.2 µM) | relative viability (Kobe2602 + Lapatinib; first compound 0.6325 µM) | relative viability (Kobe2602 + Lapatinib; first compound 2 µM) | relative viability (Kobe2602 + Lapatinib; first compound 6.325 µM) | relative viability (Kobe2602 + Lapatinib; first compound 20 µM) | relative viability ([1]; first compound 0.02 µM) | relative viability ([1]; first compound 0.06325 µM) | relative viability ([1]; first compound 0.2 µM) | relative viability ([1]; first compound 0.6325 µM) | relative viability ([1]; first compound 2 µM) | relative viability (Kobe2602 + Navitoclax; first compound 0.2 µM) | relative viability (Kobe2602 + Navitoclax; first compound 0.6325 µM) | relative viability (Kobe2602 + Navitoclax; first compound 2 µM) | relative viability (Kobe2602 + Navitoclax; first compound 6.325 µM) | relative viability (Kobe2602 + Navitoclax; first compound 20 µM) | relative viability ([2]; first compound 0.02 µM) | relative viability ([2]; first compound 0.06325 µM) | relative viability ([2]; first compound 0.2 µM) | relative viability ([2]; first compound 0.6325 µM) | relative viability ([2]; first compound 2 µM)
NCI-H3122 | 1.04 | 0.981 | 1 | 1.03 | 1.06 | 1.01 | 1.03 | 1.08 | 0.949 | 1 | 1.05 | 0.971 | 1.02 | 1.02 | 1.03 | 1 | 1.01 | 0.978 | 0.924 | 0.964
201T | 0.986 | 1.1 | 1.07 | 1.01 | 1.04 | 1.08 | 1.04 | 0.993 | 1.01 | 0.973 | 1.23 | 1.18 | 1.18 | 1.3 | 1.29 | 1.14 | 1.15 | 1.05 | 1.08 | 1.12
SK-LU-1 | 0.859 | 0.88 | 0.92 | 0.859 | 0.817 | – | 1.34 | 1.08 | 1.34 | 0.823 | 0.818 | 0.984 | 0.713 | 1.01 | 0.967 | 1.06 | 1.78 | 1.39 | 0.905 | 1.1
Calu-6 | 1.08 | 1.14 | 1.1 | 1.04 | 0.995 | 1.06 | 0.975 | 1.01 | 0.871 | 0.881 | 0.818 | 0.875 | 0.866 | 0.826 | 0.744 | 1.09 | 1.05 | 1.04 | 1.04 | 0.949
NCI-H1734 | 1.06 | 1.11 | 1.14 | 1.26 | 1.03 | 0.959 | 0.916 | 0.929 | 0.831 | 0.517 | 0.899 | 0.924 | 0.842 | 0.837 | 0.926 | 1.04 | 1.06 | 0.987 | 0.891 | 0.951
NCI-H1651 | 0.871 | 0.981 | 0.836 | 0.775 | 0.764 | 1.06 | 0.969 | 1.06 | 0.958 | 0.733 | 1.11 | 1.08 | 1.18 | 1.03 | 1.02 | 0.883 | 1.03 | 0.891 | 0.904 | 0.985
PC-3 [JPC-3] | 0.488 | 0.457 | 0.434 | 0.477 | 0.495 | 0.971 | 0.993 | – | 1 | 0.902 | 0.833 | 0.775 | 0.76 | 0.847 | 0.717 | 0.802 | 0.992 | – | 0.863 | 0.867
NCI-H1915 | 0.998 | 1.04 | 0.969 | 1.02 | 1.03 | 1.1 | 1.12 | 1.09 | 1.01 | 1.12 | 0.796 | 0.827 | 0.797 | 0.791 | 0.795 | 1.01 | 1.02 | 0.971 | 1.01 | 0.979
COR-L23 | 0.856 | 1.05 | 1.02 | 0.876 | 0.907 | 1.03 | 1.27 | 0.866 | 0.954 | 0.863 | 0.951 | 1.01 | 1.02 | 1.06 | 0.938 | 1.25 | 1 | 1.01 | 1.06 | 1.07
HOP-62 | 1.06 | 1.04 | 0.951 | 0.94 | 1.04 | 1.09 | 0.974 | 1.1 | 1.01 | 1.02 | 1.01 | 1.03 | 0.986 | 1 | 1.04 | 0.779 | 0.828 | 0.56 | 1.07 | 1.06
NCI-H1975 | 0.886 | 0.956 | 0.767 | 0.756 | 0.852 | 1 | 1.09 | 0.895 | 0.965 | 0.898 | 1.08 | 0.955 | 0.968 | 1.1 | 0.928 | 0.409 | 0.403 | 0.357 | 0.402 | 0.389
BEN | 0.671 | 0.935 | 0.782 | 0.69 | 0.811 | 0.906 | 0.993 | 0.974 | 0.795 | 0.597 | 0.0992 | 0.0652 | 0.0611 | 0.0659 | 0.0705 | 0.679 | 1.08 | 0.902 | 0.639 | 0.795
EMC-BAC-2 | 0.89 | 0.935 | 0.904 | 0.904 | 0.909 | 0.842 | 0.853 | 0.775 | 0.834 | 0.797 | 1.16 | 1.17 | 1.11 | 1.13 | 1.16 | 0.982 | 1.2 | 1.01 | 1.07 | 1.17
NCI-H727 | 0.885 | 0.783 | 0.879 | 0.996 | 0.986 | 0.323 | 0.231 | 0.282 | 0.22 | 0.309 | 0.392 | 0.431 | 0.356 | 0.389 | 0.456 | 0.704 | 0.901 | 0.718 | 0.819 | 0.947
NCI-H1299 | 0.997 | 0.991 | 0.949 | 1.01 | 0.935 | 1.03 | 1 | 0.982 | 0.96 | 0.966 | 1.07 | 1.04 | 1.06 | 1.08 | 1.02 | 1.01 | 1.03 | 1.03 | 1.01 | 1.05
LU99A | 0.989 | 0.921 | 0.959 | 0.97 | 1.07 | 0.547 | 0.513 | 0.516 | 0.452 | 0.435 | 0.817 | 0.87 | 0.811 | 0.732 | 0.781 | 1.13 | 1.16 | 1.17 | 0.986 | 1.06
